Molecular target: T1, human TLR8 (Homo sapiens, UniProt Q9NR97)
T1 construct: host or cells: HEK293
T1 sequence (Q9NR97 27-1041): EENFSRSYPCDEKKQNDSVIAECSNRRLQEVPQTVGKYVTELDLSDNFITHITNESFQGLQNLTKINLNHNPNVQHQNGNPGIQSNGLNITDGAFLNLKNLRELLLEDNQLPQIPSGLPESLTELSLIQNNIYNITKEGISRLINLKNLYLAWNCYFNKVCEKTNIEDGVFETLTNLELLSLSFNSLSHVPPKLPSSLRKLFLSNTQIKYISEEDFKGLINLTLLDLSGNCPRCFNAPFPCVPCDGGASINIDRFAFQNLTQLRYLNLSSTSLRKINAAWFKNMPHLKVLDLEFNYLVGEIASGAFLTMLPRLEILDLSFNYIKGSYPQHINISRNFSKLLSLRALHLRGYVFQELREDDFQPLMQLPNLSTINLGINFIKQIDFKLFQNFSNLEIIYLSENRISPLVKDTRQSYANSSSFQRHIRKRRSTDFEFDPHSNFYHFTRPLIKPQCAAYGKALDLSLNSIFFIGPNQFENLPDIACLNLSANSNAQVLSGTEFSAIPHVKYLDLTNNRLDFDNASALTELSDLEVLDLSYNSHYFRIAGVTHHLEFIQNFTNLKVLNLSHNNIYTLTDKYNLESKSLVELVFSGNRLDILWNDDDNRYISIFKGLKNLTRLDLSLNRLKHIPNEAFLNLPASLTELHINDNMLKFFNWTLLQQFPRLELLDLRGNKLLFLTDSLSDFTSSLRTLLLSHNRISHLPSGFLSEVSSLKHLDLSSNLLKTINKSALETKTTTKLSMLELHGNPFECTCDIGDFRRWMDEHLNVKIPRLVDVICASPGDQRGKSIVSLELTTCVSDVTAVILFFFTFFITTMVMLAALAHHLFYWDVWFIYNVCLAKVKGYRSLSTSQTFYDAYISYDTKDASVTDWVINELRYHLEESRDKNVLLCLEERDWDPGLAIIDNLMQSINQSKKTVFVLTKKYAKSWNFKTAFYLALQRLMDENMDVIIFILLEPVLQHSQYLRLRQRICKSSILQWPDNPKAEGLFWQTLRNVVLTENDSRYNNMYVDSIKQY
Assay: HEK293-humanTLR8 SEAP reporter assay (Example 8)
Assay type: cell-based
Details: HEK293-hTLR8 SEAP reporter cells, 24 hrs
Experimental: In this example, the in vitro activity of compounds to activate human TLR7 (or human TLR8 or mouse TLR7) pathway was evaluated on HEK293 reporter cells transfected with human TLR7 (or human TLR8 or mouse TLR7) and an inducible SEAP (secreted embryonic alkaline phosphatase) reporter gene. The SEAP reporter gene is placed under the control of the IFN-β minimal promoter fused to five NF-κB and AP-1-binding sites. Stimulation with a TLR7 agonist activates NF-κB and AP-1 which induces the production of SEAP. Levels of SEAP were determined by HEK-Blue Detection medium.
The in vitro activity of compounds on TLR7 (human and mouse) and TLR8 (human only) reporter cell lines was assessed as follows. 5-(2-methoxy-4-(piperazin-1-ylmethyl)benzyl)-N4-pentyl-5H-pyrrolo[3,2-d]pyrimidine-2,4-diamine (Compound 1) is a compound used for comparison and has the structure shown below:
HEK293-humanTLR7 (hTLR7), HEK293-mouseTLR7 (mTLR7) and HEK293-humanTLR8 (hTLR8) reporter cell lines were purchased from Invivogen and cell lines were maintained in the manufacturer's recommended culture medium with required supplemental antibiotics. On the day of assay, the cells were harvested with Accutase and counted by the Vi-CELL Cell Viability Analyzers. Cells were resuspended in HEK blue detection medium and a total of 10,000 cells were seeded in each well of a 384-well flat bottom plate. Serial dilutions of test compounds (1:4 serial dilution starting from 5 μM) were added into treatment wells and assay plates were cultured at 37° C. in a CO2 incubator for 24 hrs. The plates were then read by spectrophotometry at 640 nm. Data was fitted with non-linear regression analysis, using a log(inhibitor) vs. response-variable slope, 3-parameter fit with GraphPad Prism. There result was reported in Table 1 as EC50 (the midpoint of the curve, or concentration at which 50% of the maximum effect was observed).

EC50 | SMILES
342 nM | CCCCCNc1nc(N)nc2ccn(Cc3ccc(CN4CC5(CNCCO5)C4)cc3OC)c12 [Compound 10, 5-[[2-methoxy-4-(5-oxa-2,8-diazaspiro[3.5]nonan-2-ylmethyl)phenyl]methyl]-N4-pentyl-pyrrolo[3,2-d]pyrimidine-2,4-diamine]
338 nM | CCCCCNc1nc(N)nc2ccn(Cc3ccc(CN4CCNCC4)cc3OC)c12 [Compound 1, 5-(2-methoxy-4-(piperazin-1-ylmethyl)benzyl)-N4-pentyl-5H-pyrrolo[3,2-d]pyrimidine-2,4-diamine, reference compound]

SMILES | EC50
CCCCCNc1nc(N)nc2ccn(Cc3ccc(CN4CC(NC)C4)cc3OC)c12 [Compound 2, 5-(2-methoxy-4-((3-(methylamino)azetidin-1-yl)methyl)benzyl)-N4-pentyl-5H-pyrrolo[3,2-d]pyrimidine-2,4-diamine] | 367 nM

Source: patent US12534465B2, “5H-pyrrolo[3,2-d]pyrimidine-2,4-diamino compounds and antibody conjugates thereof” (SUTRO BIOPHARMA, INC., priority 2019, dated 2026)
